Columns and labels:
neuropathic pain = details: purified compound; thermal and mechanical hyperalgesia and mechanical allodynia; cited from earlier work
menstrual pain = assay: Comparison of VAS scores for CBD only, CBG only, PEA only and combination vaginal suppositories (Example 2); assay type: in vivo, human; details: vaginal suppository; for Magnitude of pain reduction from baseline: VAS points
Excerpt: Specifically, the formulations were individually/separately administered, with each single formulation being administered on a separate day of the patient's menstrual period.
Comparison of visual analogue pain scores (VAS scores) for CBD only, CBG only, PEA only and CBD+CBG+PEA combinations delivered using vaginal suppositories.

[1] = test system: inflammation in experimental rat model; details: versus Diclofenac (100 mg/kg), p<0.05; cited from earlier work
chemical nociception = details: not blocked by naloxone; cited from earlier work
[2] = cited from earlier work

Compound | Magnitude of pain reduction from baseline (menstrual pain) | Duration of effect (menstrual pain) [h] | Onset of effect (menstrual pain) [min] | VAS at max effect (menstrual pain) | also measured
C=C(C)[C@@H]1CCC(C)=C[C@H]1c1c(O)cc(CCCCC)cc1O [CBD 50 mg, Cannabidiol] | 2 | 5 | 20 | 5 | Relief of neuropathic pain (neuropathic pain): partially relieve neuropathic pain
CCCCCc1cc(O)c(C/C=C(\C)CCC=C(C)C)c(O)c1 [CBG 50 mg, Cannabigerol] | 0 |  |  | 8 | 
COc1cc(CNC(=O)CCCC/C=C/C(C)C)ccc1O [CPF, capsaicin] |  |  |  |  | Anti-inflammatory effects [1]: comparable to diclofenac
CCCCCCCCCCCCCCCC(=O)NCCO [PEA 250 mg, N-Palmitoylethanolamide] | 2 | 6 | 30 | 5 | 
CC(C)=C1CC[C@@H](C)CC1=O [PUL, (R)-5-Methyl-2-(1-methylethylidine) cyclohexanone] |  |  |  |  | Chemical nociception in first and second phase of the formalin test (chemical nociception): significantly inhibited; Miscibility with organic solvents ([2]; ethanol, diethyl ether and chloroform): miscible; Solubility in water ([2]; water): practically insolubile
